One data set deals with T1, YciM (Salmonella enterica, UniProt Q7CQG6).
T1 sequence (Q7CQG6 23-389): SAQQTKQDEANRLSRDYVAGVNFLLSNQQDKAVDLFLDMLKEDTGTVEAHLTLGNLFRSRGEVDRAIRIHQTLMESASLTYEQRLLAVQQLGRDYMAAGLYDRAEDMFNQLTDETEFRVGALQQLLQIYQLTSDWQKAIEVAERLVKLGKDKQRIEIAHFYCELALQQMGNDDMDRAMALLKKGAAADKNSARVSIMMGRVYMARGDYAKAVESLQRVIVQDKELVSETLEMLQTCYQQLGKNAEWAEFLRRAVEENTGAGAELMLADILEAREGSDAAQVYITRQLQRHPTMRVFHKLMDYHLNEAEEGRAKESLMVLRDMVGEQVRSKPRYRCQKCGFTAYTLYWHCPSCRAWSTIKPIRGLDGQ
The data set can be described thus: isothermal titration calorimetry, single-site fit. The data set is classed as binding. For orientation: ITC needs no label: the signal is the heat of the interaction.

The data set “crystal structure” deals with the molecule itself. Description: crystal structure.

From publication PMC9460159 (iScience, 2022) come the findings set out here.

Take `CCCCCCCCCCCC(O)CC(=O)O` (centres unmarked) [3-hydroxymyristic acid]: the dissociation constant (Kd) on YciM was 1.25 ± 0.88 µM.

B1: YciM cytoplasmic domain of S. typhimurium (domain or fragment, UniProt A0A0F6B1Z6 136-389, looked up)
chain: ETEFRVGALQQLLQIYQLTSDWQKAIEVAERLVKLGKDKQRIEIAHFYCELALQQMGNDDMDRAMALLKKGAAADKNSARVSIMMGRVYMARGDYAKAVESLQRVIVQDKELVSETLEMLQTCYQQLGKNAEWAEFLRRAVEENTGAGAELMLADILEAREGSDAAQVYITRQLQRHPTMRVFHKLMDYHLNEAEEGRAKESLMVLRDMVGEQVRSKPRYRCQKCGFTAYTLYWHCPSCRAWSTIKPIRGLDGQ
Regarding B1, the binding result in the data set “crystal structure” is listed as “binds”.

One may read the Kd as the free concentration of one partner at which half of the binding sites on the other are occupied at equilibrium, for simple one-to-one binding.
